Experimental data published in ChEMBL document CHEMBL4483862, “Open-source discovery of chemical leads for next-generation chemoprotective antimalarials” (2018).

System: Plasmodium berghei
Experiment: Luciferase/luciferin-expressing antifolate-resistant parasites were used to infect a culture of HepG2 cells that were pre-incubated with compounds. Infected hepatocytes emit light due to the luciferase reaction. Assay results are presented as the percent inhibition of light emission compared to control. […]
Format: functional
Details: sporozoite; for IC90: read-out: LUCIFERASE INFECTION ASSAY - IC90
[1] = read-out: LUCIFERASE INFECTION ASSAY - IC50

Row | SMILES | IC90 [µM] | IC50 [1] [µM] | other results
1 | CN(C)C(=O)c1ccc(-c2ccnc3n[nH]c(-c4ccc(N(C)C)cc4)c23)cc1 | 5.06 |  | IC50 (HEPG2TOX_HILL_SLOPE 14.4, HEPG2TOX_R_SQUARED 0.857, PBLUC_HILL_SLOPE 6.94, PBLUC_R_SQUARED 0.445, read-out: LUCIFERASE INFECTION ASSAY - IC50): 3.69 µM
2 | NS(=O)(=O)c1ccc(CCNc2cc(-c3ccccc3)c3cc4c(cc3n2)OCCO4)cc1 | 6.08 | 3.43 | 
3 | Cc1ccc(S(=O)(=O)N2CCN(C(=O)/C=C/c3ccsc3)CC2)cc1 | > 10 |  | IC50 (FFLUC_HILL_SLOPE 16.5, FFLUC_R_SQUARED 0.182, read-out: LUCIFERASE INFECTION ASSAY - IC50): > 10 µM
4 | COc1cc(OC)c(C(=O)/C=C/c2cccnc2)cc1Cl | 3.76 | 3.3 | 
5 | Cc1ccc(CN(C)C(=O)C2CCN(c3ncnc4sc(C)c(C)c34)CC2)o1 | > 10 |  | IC50 (PBLUC_HILL_SLOPE 6.95, PBLUC_R_SQUARED 0.517, read-out: LUCIFERASE INFECTION ASSAY - IC50): 8.99 µM
6 | CC(=O)Nc1sc2c(c1C(=O)OCC(=O)Nc1cc(S(=O)(=O)N3CCOCC3)ccc1Cl)CCCC2 | > 10 | > 10 | 
7 | C[C@H]1O[C@@H](O[C@H]2[C@@H](O)C[C@H](O[C@H]3[C@@H](O)C[C@H](O[C@H]4CC[C@]5(C)C6CC[C@]7(C)[C@@H](C8=CC(=O)OC8)CC[C@]7(O)C6CC[C@@H]5C4)O[C@@H]3C)O[C@@H]2C)C[C@H](O)[C@H]1O (some centres undefined) | 3.31 |  | IC50 (HEPG2TOX_HILL_SLOPE 2.7, HEPG2TOX_R_SQUARED 0.866, PBLUC_HILL_SLOPE 1.79, PBLUC_R_SQUARED 0.476, read-out: LUCIFERASE INFECTION ASSAY - IC50): 0.969 µM
8 | Cc1nnc(NC(=O)CN2CCC(c3nc4ccccc4o3)CC2)s1 | > 10 | > 10 | 
9 | O=C(c1ccc(=O)[nH]c1)N1CCN(Cc2nc(=O)c3ccccc3[nH]2)CC1 | > 10 | > 10 | 
10 | CC1(C)C=Cc2cc(C(=N)NOC(=O)c3cccs3)ccc2O1 | 0.21 |  | 
11 | CCOC(=O)c1c(C)oc(-c2ccc(Cl)cc2)c1S(=O)(=O)Nc1cccc(C)c1 | > 7.61 |  | IC50 (HEPG2TOX_HILL_SLOPE 7.66, HEPG2TOX_R_SQUARED 0.177, read-out: LUCIFERASE INFECTION ASSAY - IC50): > 7.61 µM
12 | Cc1cc(NC(=O)C(C)n2nc(-c3cccs3)c3ccccc3c2=O)no1 (centres undefined) | > 10 |  | IC50 (HEPG2TOX_HILL_SLOPE 9.69, HEPG2TOX_R_SQUARED 0.542, read-out: LUCIFERASE INFECTION ASSAY - IC50): > 10 µM
13 | CSc1ncc(C(=O)N2CCN(c3ccnc4cc(Cl)ccc34)CC2)n1-c1ccc(F)cc1 | 9.72 |  | IC50 (PBLUC_HILL_SLOPE 12.3, PBLUC_R_SQUARED 0.334, read-out: LUCIFERASE INFECTION ASSAY - IC50): 8.13 µM
14 | O=C(NCC#Cc1ccccc1)c1cccc2cccnc12 | > 10 | > 10 | 
15 | Nc1nccnc1C(=O)Nc1ncc(Cc2cc(Cl)cc(Cl)c2)s1 | 7.09 |  | IC50 (PBLUC_HILL_SLOPE 2.47, PBLUC_R_SQUARED 0.427, read-out: LUCIFERASE INFECTION ASSAY - IC50): 2.91 µM
16 | O=C(Nc1nnc(C2CC2)s1)c1cccc(S(=O)(=O)N2CCc3ccccc32)c1 | > 10 | > 10 | 
17 | COc1ccc(C(=O)Nc2ccccc2-c2nc3ccccc3[nH]2)cc1S(=O)(=O)N1CCCC1 | > 10 |  | IC50 (PBLUC_HILL_SLOPE 15.4, PBLUC_R_SQUARED 0.501, read-out: LUCIFERASE INFECTION ASSAY - IC50): 8.92 µM
18 | CS(=O)(=O)Nc1ccc(-c2csc(NC(=O)c3ccc(CN4CCCCC4)cc3)n2)cc1 | > 10 |  | IC50 (PBLUC_HILL_SLOPE 15.3, PBLUC_R_SQUARED 0.202, read-out: LUCIFERASE INFECTION ASSAY - IC50): 9.15 µM
19 | CC1CCN(C(=O)c2csc(-c3ccco3)n2)c2ccccc2S1 (centres undefined) | 7.59 |  | IC50 (PBLUC_HILL_SLOPE 1.74, PBLUC_R_SQUARED 0.579, read-out: LUCIFERASE INFECTION ASSAY - IC50): 2.14 µM
20 | CCc1ccc2nc(NC(=O)c3cnccn3)sc2c1 | 9.66 |  | IC50 (HEPG2TOX_HILL_SLOPE 14.5, HEPG2TOX_R_SQUARED 0.913, PBLUC_HILL_SLOPE 21.7, PBLUC_R_SQUARED 0.176, read-out: LUCIFERASE INFECTION ASSAY - IC50): 8.73 µM
21 | CC(=O)c1cc2c(cc1NC(=O)c1ccc(Cn3cccn3)cc1)OCO2 | > 10 | > 10 | 
22 | CC(C)c1ccc(Nc2ncc3c(n2)CCN(C(=O)Nc2ccc(F)c(Cl)c2)C3)cc1 | > 7.5 | > 7.5 | 
23 | COc1ccc(-c2nnc(NC(=O)c3ccc(C)c(S(=O)(=O)N4CCCCC4)c3)[nH]2)cc1 | 6.51 |  | IC50 (HEPG2TOX_HILL_SLOPE 2.01, HEPG2TOX_R_SQUARED 0.893, PBLUC_HILL_SLOPE 2.99, PBLUC_R_SQUARED 0.681, read-out: LUCIFERASE INFECTION ASSAY - IC50): 3.12 µM
24 | Cc1sc2ncnc(N3CCC(C(=O)Nc4nnc(-c5cccc([N+](=O)[O-])c5)o4)CC3)c2c1C | > 10 | > 10 | 
25 | CCn1c2ccccc2c2cc(/C=C(/C(=O)c3ccccc3)c3nc4ccccc4[nH]3)ccc21 | > 10 | 9.13 | 

Row | SMILES | IC90 [µM] | IC50 [1] [µM] | other results
26 | CN(C)CCNc1ccnc2c(-c3ccc4ccccc4c3)cnn12 | > 9.96 |  | IC50 (PBLUC_HILL_SLOPE 0.931, PBLUC_R_SQUARED 0.843, read-out: LUCIFERASE INFECTION ASSAY - IC50): 1.06 µM
27 | COC(=O)c1sc(N)c(C(=O)OC)c1COC(=O)/C=C/c1ccc(OC(F)F)cc1 | > 10 |  | IC50 (FFLUC_HILL_SLOPE 15.7, FFLUC_R_SQUARED 0.211, read-out: LUCIFERASE INFECTION ASSAY - IC50): > 10 µM
28 | CCCC(/N=C/c1cc(Cl)ccc1O)/N=C/c1cc(Cl)ccc1O | > 9.03 | > 9.03 | 
29 | CSc1nc(=O)nc(-c2ccc(Cl)cc2)[nH]1 | > 13 | > 13 | 
30 | Cc1ccc(-c2nc(C(=O)N3CCCc4ccccc43)cs2)cc1 | > 10 | 2.91 | 
31 | COc1ccccc1/C=C(/CC(=O)NCc1ccc2c(c1)OCO2)c1nc2ccccc2s1 | > 10 | > 10 | 
32 | Cn1ccnc1S/C(=C/C=C(C#N)C#N)c1ccc(Cl)cc1 | > 10.1 |  | IC50 (HEPG2TOX_HILL_SLOPE 6.6, HEPG2TOX_R_SQUARED 0.647, PBLUC_HILL_SLOPE 3.43, PBLUC_R_SQUARED 0.702, read-out: LUCIFERASE INFECTION ASSAY - IC50): 5.57 µM
33 | Cc1ccc(C)c(NC(=O)CN(C)C(=O)CN(C)C(C)c2ccccc2)c1 (centres undefined) | > 10 | > 10 | 
34 | O=C(On1c(-c2ccccc2)nc2ccccc2c1=O)c1ccc(F)cc1 | > 9.16 | > 9.16 | 
35 | COc1cc(-c2nc3ccc(NC(=O)Nc4ccc(OC(F)(F)F)cc4)cn3n2)cc(OC)c1OC | 4.73 |  | IC50 (HEPG2TOX_HILL_SLOPE 11.1, HEPG2TOX_R_SQUARED 0.679, PBLUC_HILL_SLOPE 2.84, PBLUC_R_SQUARED 0.644, read-out: LUCIFERASE INFECTION ASSAY - IC50): 2.18 µM
36 | O=C(NC1CC1)c1ccc(-c2cnc3c(NCC4CC4)nccn23)cc1 | 6.12 |  | IC50 (HEPG2TOX_HILL_SLOPE 1.1, HEPG2TOX_R_SQUARED 0.94, PBLUC_HILL_SLOPE 4.24, PBLUC_R_SQUARED 0.447, read-out: LUCIFERASE INFECTION ASSAY - IC50): 3.65 µM
37 | OC(Cc1ccccc1)(c1ccccc1)c1ccccc1/N=C/c1ccc(Cl)c(Cl)c1 (centres undefined) | > 7.39 | > 7.39 | 
38 | CCOC(=O)CC(=O)CSc1nnc(-c2ccccc2Cl)n1-c1ccccc1F | 0.0166 |  | IC50 (PBLUC_HILL_SLOPE 12.3, PBLUC_R_SQUARED 0.795, read-out: LUCIFERASE INFECTION ASSAY - IC50): 0.0139 µM
39 | Oc1ccc(Br)cc1/C=N/NC(=S)NC1CC2CCC1C2 (centres undefined) | 8.93 |  | IC50 (HEPG2TOX_HILL_SLOPE 9.58, HEPG2TOX_R_SQUARED 0.779, PBLUC_HILL_SLOPE 13.3, PBLUC_R_SQUARED 0.143, read-out: LUCIFERASE INFECTION ASSAY - IC50): 7.57 µM
40 | O=C(CSc1cccc[n+]1[O-])Nc1ccccc1OC(F)F | > 10 | > 10 | 
41 | Cc1cc(Cl)c(C)c(S(=O)(=O)Nc2ccccc2N2CCN(C)CC2)c1Cl | > 10 |  | IC50 (FFLUC_HILL_SLOPE 13.7, FFLUC_R_SQUARED 0.171, read-out: LUCIFERASE INFECTION ASSAY - IC50): > 10 µM
42 | CCCc1ccc(-c2nc(NC(=O)CCc3ccsc3)sc2C)cc1 | > 10 | > 10 | 
43 | CCN(CC)S(=O)(=O)c1ccc2c(c1)CCN2Cc1nc2ccccc2c(=O)n1C | > 10 |  | IC50 (HEPG2TOX_HILL_SLOPE 0.751, HEPG2TOX_R_SQUARED 0.213, PBLUC_HILL_SLOPE 2.58, PBLUC_R_SQUARED 0.526, read-out: LUCIFERASE INFECTION ASSAY - IC50): 6.02 µM
44 | O=C(CSc1nnnn1CC1CCCO1)NCc1ccc2c(c1)OCO2 (centres undefined) | > 10 | > 10 | 
45 | COc1ccc(CN2C(=O)N(CC(C)C)C3(CCN(Cc4c[nH]c5ccccc45)CC3)C2=O)cc1 | > 6.95 | 6.77 | 
46 | CC(C(=O)Nc1cc(S(=O)(=O)N2CCCCC2)ccc1Cl)N1CCN(c2ccccn2)CC1 (centres undefined) | > 10 | > 10 | 
47 | Oc1cccc(-c2cnc3cnc(-c4ccco4)cn23)c1 | > 11.9 |  | IC50 (HEPG2TOX_HILL_SLOPE 0.436, HEPG2TOX_R_SQUARED 0.582, PBLUC_HILL_SLOPE 2.53, PBLUC_R_SQUARED 0.573, read-out: LUCIFERASE INFECTION ASSAY - IC50): 6.72 µM
48 | O=C(CNc1cccc(S(=O)(=O)N2CCCCC2)c1)NC(=O)NC1CCCCC1 | > 10 |  | IC50 (PBLUC_HILL_SLOPE 11, PBLUC_R_SQUARED 0.0354, read-out: LUCIFERASE INFECTION ASSAY - IC50): 9.65 µM
49 | Cc1nc(SCC(=O)NCCN2C(=O)CSC2=O)n(C2CCCCC2)c1C | > 10 | > 10 | 
50 | C/C(c1cccs1)=[N+](/[O-])C(C)/C(=N/O)c1ccco1 (centres undefined) | > 10 | > 10 | 
